From PubChem BioAssay AID256 (DTP/NCI, 2004)
Values joined by “and” are separate entries in the source; they are usually repeats but may differ in a detail not shown here. Equal entries are not always repeated. Inconclusive results and toxic doses are left out. The calls were made as follows: active = survival T/C of 150% or more; inactive = T/C below 125% in these data.

Tested on: CD2F1 mice, L1210 leukemia ip, survival T/C
Assay: NCI In Vivo Anticancer Drug Screen. Data for tumor model L1210 Leukemia (intraperitoneal) in CD2F1 (CDF1) mice
Conditions: higher = longer survival
How it was run: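 Mice carrying a transplanted tumor received test compound or vehicle alone. The value is the measurement in the treated group divided by that in the vehicle-treated control group.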

[1] = endpoint: mean survival time, dose: 100.0 mg/kg/injection, schedule: Q01DX001 (ip), vehicle: saline with Tween-80
[2] = endpoint: mean survival time, dose: 100.0 mg/kg/injection, schedule: Q01DX009 (ip), vehicle: saline with Tween-80
[3] = endpoint: mean survival time, dose: 200.0 mg/kg/injection, schedule: Q01DX009 (ip), vehicle: saline with Tween-80
[4] = endpoint: mean survival time, dose: 400.0 mg/kg/injection, schedule: Q01DX009 (ip), vehicle: saline with Tween-80
[5] = endpoint: mean survival time, dose: 100.0 mg/kg/injection, schedule: Q04DX003 (ip), vehicle: saline with Tween-80
[6] = endpoint: mean survival time, dose: 200.0 mg/kg/injection, schedule: Q04DX003 (ip), vehicle: saline with Tween-80
[7] = endpoint: mean survival time, dose: 400.0 mg/kg/injection, schedule: Q04DX003 (ip), vehicle: saline with Tween-80
[8] = endpoint: mean survival time, dose: 100.0 mg/kg/injection, schedule: Q04DX002 (ip), vehicle: saline with Tween-80
[9] = endpoint: mean survival time, dose: 200.0 mg/kg/injection, schedule: Q04DX002 (ip), vehicle: saline with Tween-80
[10] = endpoint: mean survival time, dose: 400.0 mg/kg/injection, schedule: Q04DX002 (ip), vehicle: saline with Tween-80

Measured: T/C

C/C=C\C[P+](c1ccccc1)(c1ccccc1)c1ccccc1
inactive: endpoint: mean survival time, dose: 5.0 mg/kg/injection, schedule: Q01DX001 (ip), vehicle: saline with Tween-80 101 % of control | endpoint: mean survival time, dose: 5.0 mg/kg/injection, schedule: Q01DX009 (ip), vehicle: saline with Tween-80 102 % of control | endpoint: mean survival time, dose: 10.0 mg/kg/injection, schedule: Q01DX001 (ip), vehicle: saline with Tween-80 104 % of control | endpoint: mean survival time, dose: 10.0 mg/kg/injection, schedule: Q01DX009 (ip), vehicle: saline with Tween-80 102 % of control | endpoint: mean survival time, dose: 20.0 mg/kg/injection, schedule: Q01DX001 (ip), vehicle: saline with Tween-80 104 % of control | endpoint: mean survival time, dose: 20.0 mg/kg/injection, schedule: Q01DX009 (ip), vehicle: saline with Tween-80 122 % of control

Cc1cc(OCC(=O)O)ccc1Cl
inactive: endpoint: mean survival time, dose: 50.0 mg/kg/injection, schedule: Q01DX009 (ip), vehicle: Klucel (hydroxypropylcellulose) (HPC) 100 % of control | endpoint: mean survival time, dose: 100.0 mg/kg/injection, schedule: Q01DX009 (ip), vehicle: Klucel (hydroxypropylcellulose) (HPC) 104 % of control | endpoint: mean survival time, dose: 200.0 mg/kg/injection, schedule: Q01DX009 (ip), vehicle: Klucel (hydroxypropylcellulose) (HPC) 104 % of control

C/C=C/C[P+](Cc1ccccc1)(c1ccccc1)c1ccccc1
inactive: endpoint: mean survival time, dose: 0.39 mg/kg/injection, schedule: Q01DX009 (ip), vehicle: saline 97 % of control | endpoint: mean survival time, dose: 0.78 mg/kg/injection, schedule: Q01DX009 (ip), vehicle: saline 96 % of control | endpoint: mean survival time, dose: 1.56 mg/kg/injection, schedule: Q01DX009 (ip), vehicle: saline 102 % of control | endpoint: mean survival time, dose: 3.13 mg/kg/injection, schedule: Q01DX009 (ip), vehicle: saline 103 % of control

C[Si](C)(C)OC1CC(=O)OC1n1cc(F)c(=O)[nH]c1=O (stereo not drawn)
inactive: endpoint: median survival time, dose: 12.5 mg/kg/injection, schedule: Q01DX005 (ip), vehicle: saline 103 % of control | endpoint: median survival time, dose: 25.0 mg/kg/injection, schedule: Q01DX005 (ip), vehicle: saline 107 % of control | endpoint: median survival time, dose: 50.0 mg/kg/injection, schedule: Q01DX005 (ip), vehicle: saline 113 % of control | endpoint: median survival time, dose: 100.0 mg/kg/injection, schedule: Q01DX005 (ip), vehicle: saline 116 % of control

O=C(Nc1cc(C(F)(F)F)ccc1Cl)c1cccc(C(=O)Nc2cc(C(F)(F)F)ccc2Cl)c1
inactive: endpoint: mean survival time, dose: 12.5 mg/kg/injection, schedule: Q01DX009 (ip), vehicle: saline with Tween-80 86 % of control | endpoint: mean survival time, dose: 25.0 mg/kg/injection, schedule: Q01DX009 (ip), vehicle: saline with Tween-80 90 % of control | endpoint: mean survival time, dose: 50.0 mg/kg/injection, schedule: Q01DX009 (ip), vehicle: saline with Tween-80 92 % of control

O=C(O)c1c[nH]c2ccc([N+](=O)[O-])cc2c1=O
inactive: endpoint: mean survival time, dose: 50.0 mg/kg/injection, schedule: Q01DX001 (ip), vehicle: Klucel (hydroxypropylcellulose) (HPC) 104 % of control | endpoint: mean survival time, dose: 100.0 mg/kg/injection, schedule: Q01DX001 (ip), vehicle: Klucel (hydroxypropylcellulose) (HPC) 120 % of control | [1] 93 % of control | endpoint: mean survival time, dose: 200.0 mg/kg/injection, schedule: Q01DX001 (ip), vehicle: saline with Tween-80 89 % of control | endpoint: mean survival time, dose: 400.0 mg/kg/injection, schedule: Q01DX001 (ip), vehicle: saline with Tween-80 86 % of control

O=C1C=C(SCCO)C(=O)c2ccccc21
inactive: endpoint: mean survival time, dose: 0.63 mg/kg/injection, schedule: Q01DX009 (ip), vehicle: saline sonified 91 % of control | endpoint: mean survival time, dose: 1.25 mg/kg/injection, schedule: Q01DX009 (ip), vehicle: saline sonified 94 % of control | endpoint: mean survival time, dose: 1.25 mg/kg/injection, schedule: Q04DX003 (ip), vehicle: saline with Tween-80 92 % of control | endpoint: mean survival time, dose: 2.5 mg/kg/injection, schedule: Q01DX009 (ip), vehicle: saline sonified 105 % of control | endpoint: mean survival time, dose: 2.5 mg/kg/injection, schedule: Q04DX003 (ip), vehicle: saline with Tween-80 90 % of control

COC(=O)C1(C)CCCC2(C)C1CCC13OC(=O)C(C(C)C)(CC21)C3O (stereo not drawn)
inactive: [2] 94 % of control | [3] 88 % of control | [4] 92 % of control

O=C(NC(CO)C(O)c1ccc([N+](=O)[O-])cc1)C(Cl)Cl (stereo not drawn)
inactive: [2] 96 % of control | [3] 104 % of control | [4] 110 % of control

O=C1C=CC(=O)N1c1nccs1
inactive: [2] 91 % of control | [3] 95 % of control | [4] 95 % of control

CCc1cc(O)cc(C)c1Cl
inactive: [2] 96 % of control | [5] 92 % of control | [3] 92 % of control | [6] 92 % of control | [7] 100 % of control

CN(C)CCNc1cccc2c1C(=O)c1cccc(NCCN(C)C)c1C2=O
inactive: endpoint: mean survival time, dose: 1.88 mg/kg/injection, schedule: Q01DX009 (ip), vehicle: saline 94 % of control | endpoint: mean survival time, dose: 3.75 mg/kg/injection, schedule: Q01DX009 (ip), vehicle: saline 96 % of control | endpoint: mean survival time, dose: 7.5 mg/kg/injection, schedule: Q01DX009 (ip), vehicle: saline 104 % of control | endpoint: mean survival time, dose: 15.0 mg/kg/injection, schedule: Q01DX009 (ip), vehicle: saline 104 % of control | endpoint: mean survival time, dose: 30.0 mg/kg/injection, schedule: Q01DX009 (ip), vehicle: saline 104 % of control

CCC(C(N)=O)C1=CCCCC1 (stereo not drawn)
inactive: [5] 103 % of control | [6] 104 % of control | [7] 101 % of control

Cc1c2ccccc2c(CSCCC(N)C(=O)O)c2ccc3ccccc3c12 (stereo not drawn)
inactive: [5] 96 % of control | [6] 87 % of control

CCOC(=O)c1ccc(NC(=O)Oc2ccc(NC(C)=O)cc2)cc1
inactive: [2] 95 % of control and 102 % of control | [8] 91 % of control and 94 % of control | [5] 89 % of control | [3] 96 % of control and 100 % of control | [9] 94 % of control and 105 % of control | [6] 86 % of control | [4] 92 % of control and 96 % of control | [10] 92 % of control | [7] 86 % of control

O=P(NCCCl)(NCCCl)Oc1ccccc1
inactive: endpoint: mean survival time, dose: 62.5 mg/kg/injection, schedule: Q01DX001 (ip), vehicle: water 103 % of control | endpoint: mean survival time, dose: 125.0 mg/kg/injection, schedule: Q01DX001 (ip), vehicle: water 97 % of control | endpoint: mean survival time, dose: 250.0 mg/kg/injection, schedule: Q01DX001 (ip), vehicle: water 98 % of control | endpoint: mean survival time, dose: 500.0 mg/kg/injection, schedule: Q01DX001 (ip), vehicle: water 98 % of control

COc1ccc(-c2nc3c(N)nc(N)nc3nc2N)cc1OC
inactive: endpoint: mean survival time, dose: 12.5 mg/kg/injection, schedule: Q01DX009 (ip), vehicle: water 105 % of control | endpoint: mean survival time, dose: 25.0 mg/kg/injection, schedule: Q01DX009 (ip), vehicle: water 103 % of control | endpoint: mean survival time, dose: 50.0 mg/kg/injection, schedule: Q01DX009 (ip), vehicle: water 103 % of control | endpoint: mean survival time, dose: 100.0 mg/kg/injection, schedule: Q01DX009 (ip), vehicle: water 98 % of control | endpoint: mean survival time, dose: 200.0 mg/kg/injection, schedule: Q01DX009 (ip), vehicle: water 88 % of control

CC(=O)c1ccc(N=C=O)cc1
inactive: endpoint: mean survival time, dose: 25.0 mg/kg/injection, schedule: Q01DX001 (ip), vehicle: saline with Tween-80 100 % of control | endpoint: mean survival time, dose: 50.0 mg/kg/injection, schedule: Q01DX001 (ip), vehicle: saline with Tween-80 88 % of control | [1] 92 % of control

CC(CCCC1SCC2NC(=O)NC21)C(=O)O (stereo not drawn)
inactive: [5] 98 % of control | [6] 98 % of control | [7] 98 % of control

Oc1ccccc1C=NCc1ccccc1.Oc1ccccc1C=NCc1ccccc1.[Cu]
inactive: [8] 100 % of control | [9] 96 % of control | [10] 100 % of control

O=C(CC(O)C(Cl)(Cl)Cl)c1ccccc1 (stereo not drawn)
inactive: endpoint: mean survival time, dose: 50.0 mg/kg/injection, schedule: Q04DX002 (ip), vehicle: saline with Tween-80 88 % of control | [8] 88 % of control
